Like-named read-outs stand apart in the source and are kept apart here.
Experiments:
[1] = target: GST-tagged K-Ras mutant / His-tagged hSOS1 (Homo sapiens, UniProt P01116); assay: HTRF assay, K-Ras mutant / SOS1 interaction; format: binding; conditions: read-out: IC50 against mutant Kras
In short: (§1)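 Compounds, in duplicate at six concentrations from 10 μM to 0.01 μM, are added to GST-K-Ras premixed with anti-GST-Eu(K), then His-hSOS1 with anti-6His-XL665. After roughly 10 min, FRET is measured and the emission ratio is used to derive IC50.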

wildtype Kras / hSOS1 = target: T1, wildtype Kras / hSOS1 (Homo sapiens, UniProt P01116); assay: HTRF assay, wildtype Kras / SOS1 interaction; format: binding; conditions: read-out: IC50 against wildtype Kras
T1 construct: made in house; host or cells: E. coli BL21 (DE3)
In short: as §1

[2] = compound nos. 201-213, general methodology of example 5

T1 sequence (P01116 1-188 isoform P01116-2): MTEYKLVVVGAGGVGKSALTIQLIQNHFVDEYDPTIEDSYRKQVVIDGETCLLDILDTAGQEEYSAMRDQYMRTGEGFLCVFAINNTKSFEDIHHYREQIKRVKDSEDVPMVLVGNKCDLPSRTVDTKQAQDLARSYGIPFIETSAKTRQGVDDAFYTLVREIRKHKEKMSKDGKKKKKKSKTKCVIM
Sequence of GST-tagged K-Ras mutant / His-tagged hSOS1 (P01116 whole entry G12D, form open): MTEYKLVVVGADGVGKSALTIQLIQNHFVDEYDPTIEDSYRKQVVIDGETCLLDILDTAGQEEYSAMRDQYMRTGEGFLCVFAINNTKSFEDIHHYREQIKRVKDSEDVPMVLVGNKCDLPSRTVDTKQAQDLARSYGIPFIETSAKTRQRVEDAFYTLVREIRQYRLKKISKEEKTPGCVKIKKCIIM

| IC50 ([1]; compound nos. 401-703) | IC50 (wildtype Kras / hSOS1; compound nos. 401-703) | Compound | further results |
| --- | --- | --- | --- |
|  |  | Nc1nc2c(-c3c(Cl)cc4c(N5CC6CCC(C5)NC6)nc(OC[C@@]56CCCN5C[C@H](F)C6)nc4c3F)ccc(F)c2s1 (stereo partly drawn) [Compound 213, 4-(4-(3,6-diazabicyclo-[3.2.2]nonan-3-yl)-6-chloro-8-fluoro-2-(((2R,7aS)-2-fluorotetrahydro-1H-pyrrolizin-7a(5H)-yl)meth-oxy)quinazolin-7-yl)-7-fluorobenzo[d]thiazol-2-amine] | IC50 [1, 2]: < 1500 nM; IC50 (wildtype Kras / hSOS1; [2]): < 1500 nM |
|  |  | Nc1nc2c(-c3c(Cl)cc4c(N5[C@@H]6CC[C@H]5CNC6)nc(OC[C@@]56CCCN5C[C@H](F)C6)nc4c3F)ccc(F)c2s1 [Compound 301, 4-(4-((1R,5S)-3,8-diaza-bicyclo[3.2.1]octan-8-yl)-6-chloro-8-fluoro-2-(((2R,7aS)-2-fluorotetra-hydro-1H-pyrrolizin-7a(5H)-yl)methoxy)quinazolin-7-yl)-7-fluorobenzo[d]thiazol-2-amine] | IC50 ([1]; compound nos. 301-306): < 1500 nM; IC50 (wildtype Kras / hSOS1; compound nos. 301-306): < 1500 nM |
|  |  | Nc1nc2c(-c3c(Cl)cc4c(N5C6CCCC5CNC6)nc(OC[C@@]56CCCN5C[C@H](F)C6)nc4c3F)ccc(F)c2s1 [Compound 302, 4-(4-(3,9-diazabicyclo-[3.3.1]nonan-9-yl)-6-chloro-8-fluoro-2-(((2R,7aS)-2-fluorotetrahydro-1H-pyrrolizin-7a(5H)-yl)meth-oxy)quinazolin-7-yl)-7-fluorobenzo[d]thiazol-2-amine] | IC50 ([1]; compound nos. 301-306): < 1500 nM; IC50 (wildtype Kras / hSOS1; compound nos. 301-306): < 1500 nM |
|  |  | Nc1nc2c(-c3c(Cl)cc4c(N5[C@@H]6CC[C@H]5CC(F)(F)C6)nc(OC[C@@]56CCCN5C[C@H](F)C6)nc4c3F)ccc(F)c2s1 [Compound 303, 4-(6-chloro-4-((1R,5S)-3,3-difluoro-8-azabicyclo[3.2.1]-octan-8-yl)-8-fluoro-2-(((2R,7aS)-2-fluorotetra-hydro-1H-pyrrolizin-7a(5H)-yl)methoxy)quinazolin-7-yl)-7-fluorobenzo[d]thiazol-2-amine] | IC50 ([1]; compound nos. 301-306): > 1500 nM; IC50 (wildtype Kras / hSOS1; compound nos. 301-306): < 1500 nM |
|  |  | Nc1nc2c(-c3c(Cl)cc4c(N5[C@@H]6CC[C@H]5CC(F)C6)nc(OC[C@@]56CCCN5C[C@H](F)C6)nc4c3F)ccc(F)c2s1 (stereo partly drawn) [Compound 304, 4-(6-chloro-8-fluoro-4-((1R,3S,5S)-3-fluoro-8-azabicyclo[3.2.1]octan-8-yl)-2-(((2R,7aS)-2-fluoro-tetrahydro-1H-pyrrolizin-7a(5H)-yl)methoxy)quin-azolin-7-yl)-7-fluorobenzo-[d]thiazol-2-amine] | IC50 ([1]; compound nos. 301-306): < 1500 nM; IC50 (wildtype Kras / hSOS1; compound nos. 301-306): < 1500 nM |
|  |  | Nc1nc2c(-c3c(Cl)cc4c(N5[C@@H]6CCC[C@H]5C[C@H](O)C6)nc(OC[C@@]56CCCN5C[C@H](F)C6)nc4c3F)ccc(F)c2s1 [Compound 305, (1R,3R,5S)-9-(7-(2-amino-7-fluorobenzo[d]thiazol-4-yl)-6-chloro-8-fluoro-2-(((2R,7aS)-2-fluorotetra-hydro-1H-pyrrolizin-7a(5H)-yl)methoxy)quinazolin-4-yl)-9-azabicyclo[3.3.1]-nonan-3-ol] | IC50 ([1]; compound nos. 301-306): < 1500 nM; IC50 (wildtype Kras / hSOS1; compound nos. 301-306): < 1500 nM |
|  |  | CN1CCC[C@H]1COc1nc(N2[C@@H]3CC[C@H]2CNC3)c2cc(Cl)c(-c3cccc4sc(N)nc34)c(F)c2n1 [Compound 306, 4-(4-((1R,5S)-3,8-diaza-bicyclo[3.2.1]octan-8-yl)-6-chloro-8-fluoro-2-(((S)-1-methylpyrrolidin-2-yl)meth-oxy)quinazolin-7-yl)benzo-[d]thiazol-2-amine] | IC50 ([1]; compound nos. 301-306): < 1500 nM; IC50 (wildtype Kras / hSOS1; compound nos. 301-306): < 1500 nM |
| < 500 nM | < 500 nM | N#CC1C2CCC1CN(c1nc(OC[C@@]34CCCN3C[C@H](F)C4)nc3c(F)c(-c4ccc(F)c5sc(N)nc45)c(Cl)cc13)C2 (stereo partly drawn) [Compound 403, (1R,5S,8S)-3-(7-(2-amino-7-fluorobenzo[d]thiazol-4-yl)-6-chloro-8-fluoro-2-(((2R,7aS)-2-fluorotetra-hydro-1H-pyrrolizin-7a(5H)-yl)methoxy)quinazolin-4-yl)-3-azabicyclo[3.2.1]-octane-8-carbonitrile] |  |
| > 500 nM | < 500 nM | Nc1nc2c(-c3cc4c(=O)n(CCN5CCCC5)nc(N5C[C@H]6CC[C@@H](C5)N6)c4cc3Cl)ccc(F)c2s1 [Compound 404, 7-(2-amino-7-fluorobenzo[d]thiazol-4-yl)-4-((1R,5S)-3,8-diazabicyclo[3.2.1]octan-3-yl)-6-chloro-2-(2-(pyrrolidin-1-yl)ethyl)phthalazin-1(2H)-one] |  |
| > 500 nM | < 500 nM | N#Cc1c(N)sc2c(F)ccc(-c3c(Cl)cc4c(N5CCNCC(F)(F)C5)nc(OC[C@@]56CCCN5C[C@H](F)C6)nc4c3F)c12 [Compound 405, 2-amino-4-(6-chloro-4-(6,6-difluoro-1,4-diazepan-1-yl)-8-fluoro-2-(((2R,7aS)-2-fluorotetrahydro-1H-pyr-rolizin-7a(5H)-yl)methoxy)-quinazolin-7-yl)-7-fluoro-benzo[b]thiophene-3-carbonitrile] |  |
| < 500 nM | < 500 nM | NCC1C2CCC1CN(c1nc(OCC34CCCN3CCC4)nc3c(F)c(-c4ccc(F)c5sc(N)nc45)c(Cl)cc13)C2 [Compound 406, 4-(4-((1R,5S,8r)-8-(amino-methyl)-3-azabicyclo[3.2.1]-octan-3-yl)-6-chloro-8-fluoro-2-((tetrahydro-1H-pyrrolizin-7a(5H)-yl)meth-oxy)quinazolin-7-yl)-7-fluorobenzo[d]thiazol-2-amine] |  |
| < 500 nM | < 500 nM | Nc1nc2c(-c3c(Cl)cc4c(N5CCCC(O)CC5)nc(OC[C@@]56CCCN5C[C@H](F)C6)nc4c3F)ccc(F)c2s1 (stereo partly drawn) [Compound 407, 1-(7-(2-amino-7-fluoro-benzo[d]thiazol-4-yl)-6-chloro-8-fluoro-2-(((2R,7aS)-2-fluorotetrahydro-1H-pyr-rolizin-7a(5H)-yl)methoxy)-quinazolin-4-yl)azepan-4-ol] |  |
| > 500 nM | < 500 nM | Nc1nc2c(-c3ccc4c(N5C[C@H]6CCNCC[C@H]6C5)nc(OC[C@@]56CCCN5C[C@H](F)C6)nc4c3F)ccc(F)c2s1 [Compound 408, 7-fluoro-4-(8-fluoro-2-(((2R,7aS)-2-fluorotetra-hydro-1H-pyrrolizin-7a(5H)-yl)methoxy)-4-((3aR,8aS)-octahydropyrrolo[3,4-d]-azepin-2(1H)-yl)quinazolin-7-yl)benzo[d]thiazol-2-amine] |  |
| > 500 nM | < 500 nM | Oc1cc(-c2c(Cl)cc3c(N4CC5CCC(C4)N5)nc(OCC45CCCC4CCC5)nc3c2F)c2ccccc2c1 (stereo not drawn) [Compound 410, 4-(4-(3,8-diazabicyclo-[3.2.1]octan-3-yl)-6-chloro-8-fluoro-2-((hexahydro-pentalen-3a(1H)-yl)meth-oxy)quinazolin-7-yl)naph-thalen-2-ol] |  |
| > 500 nM | < 500 nM | Nc1nc2c(-c3c(Cl)cc4c(N5CC6CCC(C5)N6)nc(OCC5(CN6CCC(F)(F)C6)CC5)nc4c3F)ccc(F)c2s1 [Compound 411, 4-(4-(3,8-diazabicyclo-[3.2.1]octan-3-yl)-6-chloro-2-((1-((3,3-difluoropyrrol-idin-1-yl)methyl)cycloprop-yl)methoxy)-8-fluoroquin-azolin-7-yl)-7-fluorobenzo-[d]thiazol-2-amine] |  |
| > 500 nM | < 500 nM | Nc1nc2c(-c3ccc4c(N5CC6CCC(C5)N6)nc(OCC56CCCN5CCC6)nc4n3)ccc(F)c2s1 [Compound 412, 4-(4-(3,8-diazabicyclo-[3.2.1]octan-3-yl)-2-((tetra-hydro-1H-pyrrolizin-7a(5H)-yl)methoxy)pyrido[2,3-d]-pyrimidin-7-yl)-7-fluoro-benzo[d]thiazol-2-amine] |  |
| < 500 nM | < 500 nM | Nc1nc2c(-c3c(Cl)cc4c(N5C[C@H]6CC[C@@H](C5)[C@@H]6N)nc(OCC56CCCN5CCC6)nc4c3F)ccc(F)c2s1 [Compound 413, 4-(4-((1R,5S,8s)-8-amino-3-azabicyclo[3.2.1]octan-3-yl)-6-chloro-8-fluoro-2-((tetra-hydro-1H-pyrrolizin-7a(5H)-yl)methoxy)quinazolin-7-yl)-7-fluorobenzo[d]thiazol-2-amine] |  |
| > 500 nM | < 500 nM | CN1CCC[C@H]1COc1nc(N2CCCC(C(=O)O)CC2)c2cc(Cl)c(-c3cccc4sc(N)nc34)c(F)c2n1 (stereo partly drawn) [Compound 414, 1-(7-(2-aminobenzo[d]-thiazol-4-yl)-6-chloro-8-fluoro-2-(((S)-1-methyl-pyrrolidin-2-yl)methoxy)-quinazolin-4-yl)azepane-4-carboxylic acid] |  |
| > 500 nM | < 500 nM | CC1CCCN(c2nc(OC[C@@H]3CCCN3C)nc3c(F)c(-c4cccc5sc(N)nc45)c(Cl)cc23)CC1 (stereo partly drawn) [Compound 416, 4-(6-chloro-8-fluoro-4-(4-methylazepan-1-yl)-2-(((S)-1-methylpyrrolidin-2-yl)-methoxy)quinazolin-7-yl)-benzo[d]thiazol-2-amine] |  |
| > 500 nM | < 500 nM | Cc1ccc(C(N)=O)cc1-c1c(Cl)cc2c(N3CC4CCC(C3)N4)nc(OCC34CCCN3CCC4)nc2c1F [Compound 417, 3-(4-(3,8-diazabicyclo-[3.2.1]octan-3-yl)-6-chloro-8-fluoro-2-((tetrahydro-1H-pyrrolizin-7a(5H)-yl)meth-oxy)quinazolin-7-yl)-4-methylbenzamide] |  |
| > 500 nM | < 500 nM | Oc1cc(-c2ncc3c(N4C[C@H]5CC[C@@H](C4)N5)nc(OC[C@@]45CCCN4C[C@H](F)C5)nc3n2)c2ccccc2c1 [Compound 418, 4-(5-((1R,5S)-3,8-diazabicyclo[3.2.1]octan-3-yl)-7-(((2R,7aS)-2-fluorotetrahydro-1H-pyrrolizin-7a(5H)-yl)methoxy)pyrimido[4,5-d]pyrimidin-2-yl)naphthalen-2-ol] |  |
